# Results as given in patent US9980943B2, “Methods of treating muscular dystrophy” (BOARD OF REGENTS OF THE NEVADA SYSTEM OF HIGHER EDUCATION, …, priority 2013, dated 2018).
# What was measured:
# Type in all cases: cell-based, mouse
# [1] = test system: α7 integrin (LacZ reporter in α7βgal+/− myoblasts); assay: Myoblast α7+/LacZ integrin FDG assay (Burkin assay in myoblasts, 96-well); conditions: 96-well; for Burkin Assay in Myoblasts, value relative to DMSO: SU9516 analogs, N=3-6; for Burkin Assay in Myoblasts, signal relative to DMSO: α7+/LacZ myoblasts
# [2] = test system: α7 integrin (LacZ reporter in α7+/LacZ myotubes); assay: Myotube α7 integrin FDG assay (Burkin assay in myotubes, 96-well); conditions: for Burkin Assay in Myotubes, value relative to DMSO: SU9516 analogs, 96-well, N=3-6
# [3] = test system: β-galactosidase in CMV-LacZ C2C12 myoblasts; assay: CMV-LacZ secondary screen in C2C12 myoblasts (β-Gal stabilizing assay); conditions: for CMV-LACZ in Myoblasts, value relative to DMSO: SU9516 analogs, C2C12 CMV-LacZ, N=2; for CMV-LACZ in Myoblasts (β-galactosidase activity relative to DMSO): CMV-LacZ C2C12 myoblasts
# Procedure, shortened: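 β-Gal level was the read-out, measured in a clonal C2C12 line expressing LacZ from a CMV promoter. Dose-response curves used six concentrations, 0.5 μM up to 40 μM, with duplicate points.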
# [4] = test system: β-galactosidase in CMV-LacZ C2C12 myotubes; assay: CMV-LacZ secondary screen in C2C12 myotubes (β-Gal stabilizing assay); conditions: for CMV-LACZ in Myotubes, value relative to DMSO: SU9516 analogs, C2C12 CMV-LacZ, N=2; for CMV-LACZ in Myotubes, signal relative to DMSO: C2C12 CMV-LacZ myotubes, fold relative to DMSO
# Procedure, shortened: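 Stable CMV-LacZ C2C12 clone; six-point curve 0.5–40 μM; duplicates.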
smiles,measurement,setting,value
CCn1c(O)c(C(C#N)=C2N=c3ccccc3=N2)c2ccccc21 [MLS000564846-01],"Burkin Assay in Myoblasts, value relative to DMSO",[1]; 0.5 uM,0.8359
same,"Burkin Assay in Myoblasts, value relative to DMSO",[1]; 1 uM,0.8438
same,"Burkin Assay in Myoblasts, value relative to DMSO",[1]; 5 uM,0.8067
same,"Burkin Assay in Myoblasts, value relative to DMSO",[1]; 10 uM,0.8704
same,"Burkin Assay in Myoblasts, value relative to DMSO",[1]; 20 uM,0.7406
same,"Burkin Assay in Myoblasts, value relative to DMSO",[1]; 40 uM,0.759
same,"Burkin Assay in Myotubes, value relative to DMSO",[2]; 0.5 uM,0.8836
same,"Burkin Assay in Myotubes, value relative to DMSO",[2]; 1 uM,0.9557
same,"Burkin Assay in Myotubes, value relative to DMSO",[2]; 5 uM,1.002
same,"Burkin Assay in Myotubes, value relative to DMSO",[2]; 10 uM,1.071
same,"Burkin Assay in Myotubes, value relative to DMSO",[2]; 20 uM,0.7006
same,"Burkin Assay in Myotubes, value relative to DMSO",[2]; 40 uM,0.7529
same,"CMV-LACZ in Myoblasts, value relative to DMSO",[3]; 0.5 uM,0.9922
same,"CMV-LACZ in Myoblasts, value relative to DMSO",[3]; 1 uM,0.8172
same,"CMV-LACZ in Myoblasts, value relative to DMSO",[3]; 5 uM,0.9379
same,"CMV-LACZ in Myoblasts, value relative to DMSO",[3]; 10 uM,1.3619
same,"CMV-LACZ in Myoblasts, value relative to DMSO",[3]; 20 uM,1.2363
same,"CMV-LACZ in Myoblasts, value relative to DMSO",[3]; 40 uM,1.0885
same,"CMV-LACZ in Myotubes, value relative to DMSO",[4]; 0.5 uM,0.8304
same,"CMV-LACZ in Myotubes, value relative to DMSO",[4]; 1 uM,1.0444
same,"CMV-LACZ in Myotubes, value relative to DMSO",[4]; 5 uM,1.1234
same,"CMV-LACZ in Myotubes, value relative to DMSO",[4]; 10 uM,0.8711
same,"CMV-LACZ in Myotubes, value relative to DMSO",[4]; 20 uM,1.2012
same,"CMV-LACZ in Myotubes, value relative to DMSO",[4]; 40 uM,1.0094
Cc1ccccc1-n1c(Cc2cccs2)n[nH]c1=S [MLS000568234-01],"Burkin Assay in Myoblasts, signal relative to DMSO",[1]; 0.5 uM,1.094
same,"Burkin Assay in Myoblasts, signal relative to DMSO",[1]; 1 uM,1.032
same,"Burkin Assay in Myoblasts, signal relative to DMSO",[1]; 5 uM,1.136
same,"Burkin Assay in Myoblasts, signal relative to DMSO",[1]; 10 uM,1.373
same,"Burkin Assay in Myoblasts, signal relative to DMSO",[1]; 20 uM,1.106
same,"Burkin Assay in Myoblasts, signal relative to DMSO",[1]; 40 uM,1.011
same,"Burkin Assay in Myotubes, α7 integrin LacZ reporter signal relative to DMSO",[2]; 0.5 uM,1.08
same,"Burkin Assay in Myotubes, α7 integrin LacZ reporter signal relative to DMSO",[2]; 1 uM,1.167
same,"Burkin Assay in Myotubes, α7 integrin LacZ reporter signal relative to DMSO",[2]; 5 uM,0.9642
same,"Burkin Assay in Myotubes, α7 integrin LacZ reporter signal relative to DMSO",[2]; 10 uM,1.09
same,"Burkin Assay in Myotubes, α7 integrin LacZ reporter signal relative to DMSO",[2]; 20 uM,0.8694
same,"Burkin Assay in Myotubes, α7 integrin LacZ reporter signal relative to DMSO",[2]; 40 uM,0.9705
same,CMV-LACZ in Myoblasts (β-galactosidase activity relative to DMSO),[3]; 0.5 uM,0.9556
same,CMV-LACZ in Myoblasts (β-galactosidase activity relative to DMSO),[3]; 1 uM,0.9372
same,CMV-LACZ in Myoblasts (β-galactosidase activity relative to DMSO),[3]; 5 uM,0.9043
same,CMV-LACZ in Myoblasts (β-galactosidase activity relative to DMSO),[3]; 10 uM,0.9894
same,CMV-LACZ in Myoblasts (β-galactosidase activity relative to DMSO),[3]; 20 uM,0.8819
same,CMV-LACZ in Myoblasts (β-galactosidase activity relative to DMSO),[3]; 40 uM,0.7322
same,"CMV-LACZ in Myotubes, signal relative to DMSO",[4]; 0.5 uM,1.3844
same,"CMV-LACZ in Myotubes, signal relative to DMSO",[4]; 1 uM,1.2622
same,"CMV-LACZ in Myotubes, signal relative to DMSO",[4]; 5 uM,1.0764
same,"CMV-LACZ in Myotubes, signal relative to DMSO",[4]; 10 uM,0.9074
same,"CMV-LACZ in Myotubes, signal relative to DMSO",[4]; 20 uM,0.9918
same,"CMV-LACZ in Myotubes, signal relative to DMSO",[4]; 40 uM,0.9141
O=C(Nc1ccccc1OC(=O)c1ccc(Cl)cc1)c1ccc(Cl)cc1 [MLS000573208-01],"Burkin Assay in Myoblasts, signal relative to DMSO",[1]; 0.5 uM,1.031
same,"Burkin Assay in Myoblasts, signal relative to DMSO",[1]; 1 uM,1.015
same,"Burkin Assay in Myoblasts, signal relative to DMSO",[1]; 5 uM,0.9523
same,"Burkin Assay in Myoblasts, signal relative to DMSO",[1]; 10 uM,0.8121
same,"Burkin Assay in Myoblasts, signal relative to DMSO",[1]; 20 uM,1.632
same,"Burkin Assay in Myoblasts, signal relative to DMSO",[1]; 40 uM,0.6235
same,"Burkin Assay in Myotubes, α7 integrin LacZ reporter signal relative to DMSO",[2]; 0.5 uM,0.9453
same,"Burkin Assay in Myotubes, α7 integrin LacZ reporter signal relative to DMSO",[2]; 1 uM,1.007
same,"Burkin Assay in Myotubes, α7 integrin LacZ reporter signal relative to DMSO",[2]; 5 uM,0.98
same,"Burkin Assay in Myotubes, α7 integrin LacZ reporter signal relative to DMSO",[2]; 10 uM,1.045
same,"Burkin Assay in Myotubes, α7 integrin LacZ reporter signal relative to DMSO",[2]; 20 uM,0.8239
same,"Burkin Assay in Myotubes, α7 integrin LacZ reporter signal relative to DMSO",[2]; 40 uM,0.5966
same,CMV-LACZ in Myoblasts (β-galactosidase activity relative to DMSO),[3]; 0.5 uM,1.0197
same,CMV-LACZ in Myoblasts (β-galactosidase activity relative to DMSO),[3]; 1 uM,0.9594
same,CMV-LACZ in Myoblasts (β-galactosidase activity relative to DMSO),[3]; 5 uM,1.1030
same,CMV-LACZ in Myoblasts (β-galactosidase activity relative to DMSO),[3]; 10 uM,0.8678
same,CMV-LACZ in Myoblasts (β-galactosidase activity relative to DMSO),[3]; 20 uM,0.6626
same,CMV-LACZ in Myoblasts (β-galactosidase activity relative to DMSO),[3]; 40 uM,0.9289
same,"CMV-LACZ in Myotubes, signal relative to DMSO",[4]; 0.5 uM,0.9547
same,"CMV-LACZ in Myotubes, signal relative to DMSO",[4]; 1 uM,1.3021
same,"CMV-LACZ in Myotubes, signal relative to DMSO",[4]; 5 uM,1.1765
same,"CMV-LACZ in Myotubes, signal relative to DMSO",[4]; 10 uM,0.8913
same,"CMV-LACZ in Myotubes, signal relative to DMSO",[4]; 20 uM,0.9633
same,"CMV-LACZ in Myotubes, signal relative to DMSO",[4]; 40 uM,0.9478
